Results on five compounds are retold here after ChEMBL document CHEMBL4425102, “Structure-Based Design of Tetrahydroisoquinoline-7-carboxamides as Selective Discoidin Domain Receptor 1 (DDR1) Inhibitors” (J Med Chem, 2016).

The structures appear in SMILES notation. The source made the active and inactive calls. A value given as a limit tells only on which side of the number the result lay.

Data set [1] addresses Epithelial discoidin domain-containing receptor 1 (Homo sapiens, UniProt Q08345). The data set is described as follows: biochemical.
Data set [2] has as its target Tyrosine-protein kinase ABL1 (Homo sapiens, UniProt P00519). The data set is described as follows: Inhibition of human full length recombinant His-tagged ABL1 expressed in baculovirus infected Sf9 insect cells using tyrosine 2 peptide as substrate preincubated for 1 hr measured after 2 hrs in presence of ATP by FRET-based Z'-Lyte assay.
The nature of data set [3]: Oral bioavailability in ICR mouse at 4 mg/kg measured after 15 mins to 24 hrs by HPLC/MS analysis. In kind it is ADME, organism-based. The settings on record: in vivo.
A short description of data set [4]: AUC (0 to infinity) in ICR mouse at 1 mg/kg, iv measured after 5 mins to 24 hrs by HPLC/MS analysis. Set-up: dose 1 mg/kg, time infinity, route intravenous. The settings on record: in vivo. In kind it is ADME, organism-based.
A short description of data set [5]: Oral bioavailability in Sprague-Dawley rat at 20 mg/kg measured after 0.03 to 24 hrs by HPLC/MS analysis. The settings on record: in vivo. The data set is classed as ADME, organism-based.
Data set [6] is described as follows: Cmax in ICR mouse at 1 mg/kg, iv measured after 5 mins to 24 hrs by HPLC/MS analysis. In kind it is ADME, organism-based. Set-up: dose 1 mg/kg, route intravenous. The settings on record: in vivo.
Data set [7] is described as follows: Tmax in Sprague-Dawley rat at 20 mg/kg, po by HPLC/MS analysis. In kind it is ADME, organism-based. The settings on record: in vivo.
For data set [8], the system named is Mus musculus. The data set can be described thus: Protection against bleomycin-induced lung fibrosis in C57BL/6 mouse assessed as decrease in alpha-smooth muscle actin level in lung at 10 to 50 mg/kg administered via oral gavage bid 14 days post bleomycin treatment measured on day 28 by immunoblot analysis. In kind it is functional, organism-based. On the technique in general: A western blot detects proteins with antibodies after separation by electrophoresis.

The nature of data set [9]: AUC (0 to infinity) in Sprague-Dawley rat at 4 mg/kg, iv measured after 0.03 to 24 hrs by HPLC/MS analysis. In kind it is ADME, organism-based. Details: dose 4 mg/kg, time infinity, route intravenous. The settings on record: in vivo.
Data set [10] in a line: Tmax in ICR mouse at 4 mg/kg, po by HPLC/MS analysis. The data set is classed as ADME, organism-based. The settings on record: in vivo.
The nature of data set [11]: AUC (0 to infinity) in ICR mouse at 4 mg/kg, po measured after 15 mins to 24 hrs by HPLC/MS analysis. In kind it is ADME, organism-based. Set-up: dose 4 mg/kg, route oral, time infinity. The settings on record: in vivo.
Data set [12] deals with Mus musculus. The data set can be described thus: Protection against bleomycin-induced lung fibrosis in C57BL/6 mouse assessed as decrease in hydroxyproline level in lung administered via oral gavage bid 14 days post bleomycin treatment measured on day 28 […]. In kind it is functional, organism-based.
In data set [13] the test system is Mus musculus. The data set is described as follows: Protection against bleomycin-induced lung fibrosis in C57BL/6 mouse assessed as increase in alveolar spaces administered via oral gavage bid 14 days post bleomycin treatment measured on day 28 by Massons trichrome staining. In kind it is functional, organism-based.
A short description of data set [14]: Cmax in ICR mouse at 4 mg/kg, po measured after 15 mins to 24 hrs by HPLC/MS analysis. The data set is classed as ADME, organism-based. The settings on record: in vivo. Set-up: dose 4 mg/kg, route oral.
A short description of data set [15]: Cmax in Sprague-Dawley rat at 20 mg/kg, po measured after 0.03 to 24 hrs by HPLC/MS analysis. The data set is classed as ADME, organism-based. The settings on record: in vivo. Set-up: dose 20 mg/kg, route oral.
The nature of data set [16]: Half life in Sprague-Dawley rat at 4 mg/kg, iv by HPLC/MS analysis. The settings on record: in vivo. The data set is classed as ADME, organism-based.
The target in the next data set is T1, Ephrin type-A receptor 8 (Homo sapiens, UniProt P29322).
T1 sequence (P29322 whole entry): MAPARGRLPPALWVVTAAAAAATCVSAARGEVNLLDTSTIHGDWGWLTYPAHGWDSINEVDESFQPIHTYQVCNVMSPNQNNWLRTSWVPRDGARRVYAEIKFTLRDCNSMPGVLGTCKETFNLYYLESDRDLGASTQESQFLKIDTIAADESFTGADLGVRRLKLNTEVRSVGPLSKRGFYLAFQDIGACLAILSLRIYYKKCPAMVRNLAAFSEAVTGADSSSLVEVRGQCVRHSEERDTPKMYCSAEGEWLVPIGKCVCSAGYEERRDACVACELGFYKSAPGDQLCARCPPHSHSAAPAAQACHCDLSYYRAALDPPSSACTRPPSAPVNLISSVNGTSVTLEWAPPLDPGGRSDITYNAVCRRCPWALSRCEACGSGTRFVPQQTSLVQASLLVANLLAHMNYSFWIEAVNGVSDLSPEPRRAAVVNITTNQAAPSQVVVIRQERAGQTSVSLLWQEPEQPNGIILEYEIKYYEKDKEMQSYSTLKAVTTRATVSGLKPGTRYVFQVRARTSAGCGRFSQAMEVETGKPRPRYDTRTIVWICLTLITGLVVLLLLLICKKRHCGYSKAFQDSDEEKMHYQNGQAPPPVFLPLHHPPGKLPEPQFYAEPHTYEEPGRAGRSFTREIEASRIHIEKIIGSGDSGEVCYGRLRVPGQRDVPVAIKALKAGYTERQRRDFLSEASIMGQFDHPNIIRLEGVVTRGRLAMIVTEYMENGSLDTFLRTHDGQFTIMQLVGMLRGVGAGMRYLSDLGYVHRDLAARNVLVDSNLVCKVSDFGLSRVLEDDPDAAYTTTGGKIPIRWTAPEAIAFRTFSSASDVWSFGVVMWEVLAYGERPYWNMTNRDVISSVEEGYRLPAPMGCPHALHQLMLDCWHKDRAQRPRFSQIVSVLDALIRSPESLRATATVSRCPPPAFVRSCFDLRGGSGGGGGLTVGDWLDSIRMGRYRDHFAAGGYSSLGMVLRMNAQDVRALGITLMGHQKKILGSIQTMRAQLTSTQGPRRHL
The data set can be described thus: Binding affinity to wild type human partial length EPHA8 (608 to 920 residues) expressed in bacterial expression system preincubated for 1 hr measured after 30 mins by qPCR method. On the technique in general: In qPCR the cycle at which signal appears reflects the starting amount.

Data set [17] is described as follows: Cmax in Sprague-Dawley rat at 4 mg/kg, iv measured after 0.03 to 24 hrs by HPLC/MS analysis. The settings on record: in vivo. The data set is classed as ADME, organism-based. Details: dose 4 mg/kg, route intravenous.
Data set [18] relates to Mus musculus. The data set can be described thus: Protection against bleomycin-induced lung fibrosis in C57BL/6 mouse assessed as decrease in fibronectin level in lung at 10 to 50 mg/kg administered via oral gavage bid 14 days post bleomycin treatment measured on day 28 by immunoblot analysis. In kind it is functional, organism-based.
Data set [19] concerns the target T2, Muscle, skeletal receptor tyrosine-protein kinase (Homo sapiens, UniProt O15146).
T2 sequence (O15146 whole entry): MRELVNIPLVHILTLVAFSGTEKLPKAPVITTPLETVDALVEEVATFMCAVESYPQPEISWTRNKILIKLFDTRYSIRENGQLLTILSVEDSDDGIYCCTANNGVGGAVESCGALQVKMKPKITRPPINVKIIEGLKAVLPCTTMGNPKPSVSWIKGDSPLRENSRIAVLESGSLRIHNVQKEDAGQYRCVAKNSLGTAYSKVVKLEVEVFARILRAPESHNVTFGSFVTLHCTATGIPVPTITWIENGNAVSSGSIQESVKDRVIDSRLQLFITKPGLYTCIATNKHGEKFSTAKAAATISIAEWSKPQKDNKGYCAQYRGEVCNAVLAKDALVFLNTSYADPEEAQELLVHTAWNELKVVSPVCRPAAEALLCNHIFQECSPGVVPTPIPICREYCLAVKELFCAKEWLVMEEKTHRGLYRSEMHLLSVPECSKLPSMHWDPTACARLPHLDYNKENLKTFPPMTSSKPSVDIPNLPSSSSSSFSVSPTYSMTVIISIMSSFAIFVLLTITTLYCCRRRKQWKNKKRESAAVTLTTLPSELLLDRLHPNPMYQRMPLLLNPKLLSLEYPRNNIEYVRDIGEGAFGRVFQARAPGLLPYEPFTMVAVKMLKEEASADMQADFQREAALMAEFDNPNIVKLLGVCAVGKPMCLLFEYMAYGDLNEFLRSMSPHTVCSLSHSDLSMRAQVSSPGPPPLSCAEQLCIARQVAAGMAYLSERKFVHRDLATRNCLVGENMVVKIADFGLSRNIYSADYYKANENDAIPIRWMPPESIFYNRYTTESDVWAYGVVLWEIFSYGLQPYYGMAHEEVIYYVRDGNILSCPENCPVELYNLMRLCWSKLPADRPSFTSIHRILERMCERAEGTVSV
The data set can be described thus: Binding affinity to wild type human partial length MUSK (553 to 869 residues) expressed in bacterial expression system preincubated for 1 hr measured after 30 mins by qPCR method.

The nature of data set [20]: AUC (0 to infinity) in Sprague-Dawley rat at 20 mg/kg, po measured after 0.03 to 24 hrs by HPLC/MS analysis. In kind it is ADME, organism-based. Details: dose 20 mg/kg, route oral, time infinity. The settings on record: in vivo.

Chain of Tyrosine-protein kinase ABL1 (P00519 whole entry): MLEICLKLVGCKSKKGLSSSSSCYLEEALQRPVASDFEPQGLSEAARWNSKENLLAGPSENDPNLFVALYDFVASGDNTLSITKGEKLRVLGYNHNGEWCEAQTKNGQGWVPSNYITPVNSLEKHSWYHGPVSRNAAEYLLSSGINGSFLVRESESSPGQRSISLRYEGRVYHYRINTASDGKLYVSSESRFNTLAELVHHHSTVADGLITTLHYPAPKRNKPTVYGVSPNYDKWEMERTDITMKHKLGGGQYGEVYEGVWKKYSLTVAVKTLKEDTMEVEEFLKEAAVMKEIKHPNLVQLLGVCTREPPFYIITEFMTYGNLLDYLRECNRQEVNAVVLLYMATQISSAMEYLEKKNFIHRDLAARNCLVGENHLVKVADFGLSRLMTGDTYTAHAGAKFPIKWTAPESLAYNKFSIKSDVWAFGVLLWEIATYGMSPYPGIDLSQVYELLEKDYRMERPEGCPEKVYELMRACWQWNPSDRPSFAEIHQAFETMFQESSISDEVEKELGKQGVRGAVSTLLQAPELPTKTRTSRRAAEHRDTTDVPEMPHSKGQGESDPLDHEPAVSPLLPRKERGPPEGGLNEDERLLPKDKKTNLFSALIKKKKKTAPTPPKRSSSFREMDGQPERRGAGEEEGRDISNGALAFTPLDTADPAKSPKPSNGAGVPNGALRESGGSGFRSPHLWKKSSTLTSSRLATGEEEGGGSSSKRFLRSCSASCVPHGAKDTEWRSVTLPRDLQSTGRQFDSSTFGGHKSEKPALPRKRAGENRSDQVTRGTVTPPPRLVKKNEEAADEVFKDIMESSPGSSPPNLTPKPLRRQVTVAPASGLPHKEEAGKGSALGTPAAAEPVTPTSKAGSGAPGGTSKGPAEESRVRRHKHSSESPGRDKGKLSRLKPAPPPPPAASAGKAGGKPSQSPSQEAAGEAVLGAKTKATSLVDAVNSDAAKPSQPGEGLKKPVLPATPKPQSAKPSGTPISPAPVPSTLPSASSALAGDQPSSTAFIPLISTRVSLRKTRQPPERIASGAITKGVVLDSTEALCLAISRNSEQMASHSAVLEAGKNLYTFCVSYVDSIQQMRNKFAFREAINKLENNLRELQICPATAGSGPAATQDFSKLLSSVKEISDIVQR
Chain of Epithelial discoidin domain-containing receptor 1 (Q08345 whole entry, the tested form may be a part): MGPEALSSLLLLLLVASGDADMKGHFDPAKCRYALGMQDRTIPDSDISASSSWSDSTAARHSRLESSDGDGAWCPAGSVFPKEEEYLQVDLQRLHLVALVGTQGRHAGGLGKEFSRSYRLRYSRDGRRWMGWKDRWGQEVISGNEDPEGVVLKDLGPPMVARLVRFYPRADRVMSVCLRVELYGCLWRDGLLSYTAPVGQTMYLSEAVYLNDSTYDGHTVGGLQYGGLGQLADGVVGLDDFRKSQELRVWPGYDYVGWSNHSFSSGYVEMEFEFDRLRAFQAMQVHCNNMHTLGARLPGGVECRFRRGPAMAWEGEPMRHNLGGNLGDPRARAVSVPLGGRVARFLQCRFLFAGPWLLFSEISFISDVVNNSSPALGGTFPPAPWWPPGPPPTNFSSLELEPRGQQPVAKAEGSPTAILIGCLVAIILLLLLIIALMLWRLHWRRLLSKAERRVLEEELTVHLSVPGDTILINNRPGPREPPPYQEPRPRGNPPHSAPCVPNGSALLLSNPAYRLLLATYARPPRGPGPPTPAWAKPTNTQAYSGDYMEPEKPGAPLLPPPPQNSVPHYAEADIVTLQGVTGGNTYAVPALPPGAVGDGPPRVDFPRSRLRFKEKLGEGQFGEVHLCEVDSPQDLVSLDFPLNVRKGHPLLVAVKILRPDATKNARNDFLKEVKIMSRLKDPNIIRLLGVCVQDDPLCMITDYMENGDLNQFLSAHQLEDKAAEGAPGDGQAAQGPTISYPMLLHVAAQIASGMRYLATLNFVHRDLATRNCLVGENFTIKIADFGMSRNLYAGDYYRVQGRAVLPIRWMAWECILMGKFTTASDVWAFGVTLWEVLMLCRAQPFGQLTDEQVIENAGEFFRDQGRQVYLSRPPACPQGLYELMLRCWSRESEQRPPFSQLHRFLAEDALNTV

For the compound `CN1CCN(Cc2cc(NC(=O)c3ccc4c(c3)CN(c3ccccc3)CC4)cc(C(F)(F)F)c2)CC1`, the figures for the IC50 in data set [1] and in data set [2] were greater than 3 µM and greater than 10 µM, respectively.

Turning to `CC(C)[C@@H]1CN(c2cncnc2)Cc2cc(C(=O)Nc3cc(CN4CCN(C)CC4)cc(C(F)(F)F)c3)ccc21`, the IC50 is greater than 3 µM in data set [1] and greater than 10 µM in data set [2].

With `Cc1cn(-c2cc(NC(=O)c3ccc4c(c3)CN(c3cncnc3)C[C@@H]4C)cc(C(F)(F)F)c2)cn1`, the bioavailability in data set [3] is 41.6%; in [5] it was 66.8%. Further, the AUC(0-inf) in [4] came out at 1210 ng·h/mL; in data set [9], 236 ng·h/mL; in data set [11], 2550 ng·h/mL; in [20] it was 788 ng·h/mL. Also, the Cmax stood at 2250 ng/mL in data set [6], 2190 ng/mL in data set [14], 342 ng/mL in data set [15] and 473 ng/mL in data set [17]. Moreover, the Tmax in data set [7] worked out at 1 h; in [10] it was 0.5 h. Besides, the result with Mus musculus [8] and in the data set with Mus musculus [18] was Active. The Activity result with Mus musculus [12] and with Mus musculus [13] was “Dose-dependent effect” in each case. In addition, the half-life in data set [16] was 1.5 h. Besides, the results for the Kd (on Ephrin type-A receptor 8; in data set [19]) were 0.55 µM and 0.53 µM, respectively. In addition, in data set [2], the half-inhibitory concentration (IC50) was greater than 10 µM.

On to `Cc1cn(-c2cc(NC(=O)c3ccc4c(c3)CN(c3cncnc3)C[C@H]4C)cc(C(F)(F)F)c2)cn1`, for which the IC50 in data set [2] is greater than 10 µM.

Consider `CC(C)[C@H]1CN(c2cncnc2)Cc2cc(C(=O)Nc3cc(CN4CCN(C)CC4)cc(C(F)(F)F)c3)ccc21`, for which the IC50 in data set [1] was greater than 1 µM; in data set [2], greater than 10 µM.

For orientation: IC50 means the concentration that gives 50% inhibition. By bioavailability is commonly meant dose-corrected exposure relative to a reference, in per cent. Low readings indicate little systemic uptake, high ones much systemic uptake. As a reminder, the AUC(0-inf) is the area under the concentration-time curve extrapolated to infinity. Read a low AUC(0-inf) as low exposure. Broadly, the Cmax is the peak of the concentration-time curve. A word on the Tmax: it is the time at which the peak concentration occurs. As a reminder, the half-life is the time needed for the level to fall by half in the phase considered. What is called Kd is the concentration at which binding is half-saturated. The low end stands for tighter binding, the high end for weaker binding.
